Publication PMC5080841 (Journal of medicinal chemistry, 2016)

What was measured:
P. aeruginosa HemO = target: T1, P. aeruginosa HemO (Pseudomonas aeruginosa, UniProt O69002); conditions: read-out: binding affinity for HemO; previous work; cited from earlier work
T1 sequence (O69002 1-198): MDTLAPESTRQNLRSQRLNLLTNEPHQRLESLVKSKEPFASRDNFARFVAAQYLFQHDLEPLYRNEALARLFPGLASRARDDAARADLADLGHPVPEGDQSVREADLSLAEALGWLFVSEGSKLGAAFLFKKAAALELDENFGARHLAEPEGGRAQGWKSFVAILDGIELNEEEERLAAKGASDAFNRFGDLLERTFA

P. aeruginosa = conditions: previous work; cited from earlier work
[1] = system: Caenorhabditis elegans infection model; conditions: previous work; cited from earlier work
HemO = HemO (Pseudomonas aeruginosa, UniProt O69002); experiment: STD NMR binding epitope; conditions: relative to the strongest interacting proton

Compound	Kd (P. aeruginosa HemO) [µM]	MIC50 against P. aeruginosa (P. aeruginosa) [µg/mL]	curing activity in Caenorhabditis elegans infection model [1]	relative STD interaction of the benzylimine proton (HemO) [%]	relative STD interaction of the para-position proton (HemO) [%]
CN(C)c1ccc(/C=N/NC(=N)N)cc1.Cl [Compound 1, (E)-2-(4-(Dimethylamino)benzylidene)hydrazine-carboximidamide Hydrochloride]	31.2	250	exhibited curing activity		
Cl.NC(N)=N/N=C/c1cccc(OCc2ccccc2)c1 [Compound 24, (E)-2-(3-(Benzyloxy)benzylidene)hydrazinecarboximidamide Hydrochloride]				100	82
